One may read the IC50 as the concentration that inhibits the measured activity by half.

Results on one compound are retold here after patent US20210038730A1, “PEPTIDE NANOFIBERS” (UNIVERSITY OF PORTSMOUTH HIGHER EDUCATION CORPORATION, priority 2018, published 2021).

The test system of series [1] is rat red blood cells (RBCs). It is filed as cell-based. The conditions noted are these: 1 hour, 37° C., read-out: IC50 of haemolysis. As for the experimental part: Fresh blood, obtained from adult male Wistar rats (250 to 300 g) (Bioresources Unit, School of Pharmacy and Biomedical Sciences, University of Portsmouth, Portsmouth, UK) was collected in sterile lithium heparin-coated tubes (170 I.U., Vacutainer, BD Bioscience, UK) and kept on ice. To isolate the rat red blood cells (RBCs), fresh blood was centrifuged at 2,000 g using Haraeus Multifuge […] (Thermo Scientific, UK) at 4° C. for 10 minutes. The supernatant was removed, and the final volume was raised to the whole blood volume with PBS (0.01 M, pH 7.4). RBCs were centrifuged at 2,000 g for 10 minutes and washed with PBS three times. After the washing steps, two cell suspensions were prepared: 4% (w/v) RBCs in PBS and 1% (v/v) Triton X-100 (i.e. 1 g of cells in 25 mL of PBS or 1% (v/v) Triton X-100). RBCs in PBS and in Triton X-100 were used as a negative and positive control, respectively. […] After incubation, the cells were centrifuged at 1,200 g using a Haraeus Multifuge […] (Thermo Scientific, UK) during 10 minutes. The supernatant (100 μL) was transferred to a 96-well plate, and absorbance was measured at 590 nm. Percentage of haemolysis was calculated using Equation 1: [formula] Abs Negative Control represents the absorbance of the RBCs in PBS and Abs Positive Control the absorbance of the RBCs in 1% (v/v) Triton X-100. A control for Cremophor EL and ethanol mixture was also included.

Another series relates to hCMEC/D3 cells. The series can be described thus: Cytotoxicity (MTT) in blood-brain barrier endothelial cells. It is filed as cell-based, human. The conditions noted are these: 3.5-140 μM, 4 and 24 hours. As for the experimental part: Human brain microvessel endothelial cells (hCMEC/D3) and cerebral astrocytes (SC-1800) were maintained in a humidified atmosphere of 5% CO2, and the medium was refreshed every 2-3 days. hCMEC/D3 cells were cultured in endothelial basal medium-2 (EBM-2) supplemented with the EGM-2 Bullet Kit and 2% (v/v) human serum. SC-1800 were cultured in astrocytes basal medium (ABM) supplemented with AGM Bullet Kit and 3% (v/v) human serum. […] Subsequently, complete growth medium (4 mL) was added and cells were centrifuged using a C-28A centrifuge (Boeco, Hamburg, Germany) at 1,000 rpm for 5 minutes. Supernatant was discarded, and pellet was re-suspended in 1 mL of medium. The cell number was counted using Trypan Blue Exclusion Assay in the Countess II Automated Cell Counter (Thermo Scientific, Paisley, UK). hCMEC/D3 and SC-1800 cells were seeded at 20,000 cells/cm^2 in complete medium and allowed to attach overnight. […] Cell metabolic activity was measured after 4 and 24 hours using (3-(4,5)-dimethylthiazol-2-yl)-2,5-diphenyltetrazolium bromide ([…]) assay. […] Subsequently, DMSO (100 μL) was added to dissolve the formazan crystals and absorbance was measured at 570 and 690 nm. Metabolic activity was calculated by subtracting the absorbance values at 690 nm to 570 nm to remove background, and dividing the values by the control to express as a percentage (%) of the control using the equation below. […]

As for `CCCCCCCCCCCCCCCC(=O)Oc1ccc(C[C@H](NC(=O)[C@H](CO)NC(=O)[C@H](Cc2c[nH]c3ccccc23)NC(=O)[C@H](Cc2c[nH]cn2)NC(=O)[C@@H](N)CCC(=O)O)C(=O)NCC(=O)N[C@@H](CC(C)C)C(=O)N[C@@H](CCCNC(=N)N)C(=O)N2CCC[C@H]2C(=O)NCC(N)=O)cc1` [TPGnRH, Tyrosine (O-Palmitoyl)-Glu-GnRH], in series [1], the IC50 is approximately 200 µM. Further, in the series on hCMEC/D3 cells, the “cytotoxicity (metabolic activity, MTT)” value is “no cytotoxicity”.
